{
  "source": "patent US9409983B2",
  "about": "“Methods and compositions involving PBEF inhibitors for lung inflammation conditions and diseases” (The Board of Trustess of the University of Illinois, priority 2009, dated 2016)",
  "key": {"[1]": {"system": "C57BL/6 mice", "assay": "Lung RNA microarray analysis (SAM dysregulated genes) with RT-PCR and BAL ELISA validation", "type": "in vivo, mouse", "protocol": "Total lung RNA was isolated as described previously (Nonas et al., 2007). Affymetrix Mouse430_2 arrays (Affymetrix Inc., Santa Clara, Calif.) were utilized. Chip quality (Li and Wong, 2001) and ‘present’ or ‘absent’ expression calls were determined by GeneChip® Operating Software (GCOS) (GSE9368-rhPBEF, GSE9314-PBEF^+/−). Intensities and normalization of probe sets were calculated by Bioconductor software (GCRMA package) (Team RDC, 2005). To identify differentially-expressed genes, pairwise comparisons were conducted using Significance Analysis of Microarrays (SAM) as previously described (Nonas et al., 2007). Gene filtering parameters and results are summarized in Supplementary Table E2. Differentially-expressed genes displaying>2 fold changes are referred to as “dysregulated genes”.\nDysregulated gene functional profiles were analyzed using Onto-Express with the number of genes in each GO biological process category (Wu et al., 2004) compared with all genes on the […] chip to determine the significance of the GO category (Consortium, 2006). Ingenuity Pathway Analysis (IPA) software (containing individually modeled relationships between gene objects e.g. genes, mRNAs, proteins) was utilized to dynamically generate significant regulatory and signaling networks or pathways. The significance of a canonical pathway is controlled by the p-value calculated using the right-tailed Fisher Exact Test for 2×2 contingency tables. (See Supplemental Methods).\nLung total RNA was isolated from whole rodent lung tissue for microarray experiment as we have described previously (9) using the Affymetrix GeneChip platform and Expression Analysis Manual protocols (Affymetrix Inc., Santa Clara, Calif.). The signal intensity fluorescent images produced during Affymetrix GeneChip Mouse430_2 Array hybridizations were scanned using the Hewlett-Packard GeneArray Scanner G2500A. The ‘Present’ or ‘Absent’ calls of the probe sets in the expression chips were determined by GCOS (GeneChip® Operating Software) software. The microarray data have been submitted to the National Center for Biotechnology Information (NCBI)'s Gene Expression Omnibus repository (GSE9368 for rhPBEF study and GSE9314 for PBEF^+/− study). Chip quality (RNA degradation, cDNA synthesis, hybridization, chip washing, scanning) was evaluated with GCOS, dChip (Li and Wong, 2001) and Bioconductor ‘affy’ packages. All RNA samples and chips adopted in current study passed the quality criteria (data not shown). The intensities of probe sets were calculated by the GC Robust Multichip Average (GCRMA) package of Bioconductor software for normalization (Team RDC, 2005). To identify differentially-expressed genes, pairwise comparisons were conducted using Significance Analysis of Microarrays (SAM) (see the SAM online manual for detailed explanations of the blocking approach, www-stat.stanford.edu/˜tibs/SAM) as we have previously described (Nonas et al., 2007). Only probe sets present (determined by Affy ‘P’-call) in three replicates of at least one group with mean intensity above 100 were used for further data mining. The gene filtering parameters and results were summarized in Supplementary Table E2. […] For probe sets representing the same Entrez Gene or UniGene ID, only the probe set with lowest FDR or highest fold changes was included in the gene list.\nDysregulated genes were uploaded into the IPA software (http://www.ingenuity.com), a web-delivered application which utilizes the Ingenuity Pathways Knowledge Base (IPKB) containing a robust number of individually modeled relationships between gene objects (e.g. genes, mRNAs, proteins), in order to dynamically generate significant regulatory and signaling networks or pathways. […]"}, "[2]": {"system": "C57BL/6 mice", "assay": "Lung RNA microarray analysis (SAM dysregulated genes) with RT-PCR and BAL ELISA validation", "type": "in vivo, mouse", "remark": "listed apart in the source"}, "[3]": {"conditions": "rhPBEF vs. Control, SAM, fold change 2"}, "[4]": {"conditions": "VILIa-rhPBEF vs. Control, SAM, fold change 2"}, "[5]": {"conditions": "VILIa-rhPBEF vs. VILIa, SAM, fold change 2"}},
  "data": [
    {"substance": "rhPBEF: Recombinant human soluble PBEF/visfatin, a 52 kDa protein containing 465 amino acid residues, purchased from PeproTech", "values": [
      {"measurement": "dysregulated genes in the NFκB pathway", "setting": "[1]; VILIa-rhPBEF combined exposure, Ingenuity Pathway Analysis", "value": 21},
      {"measurement": "CxCL1 (KC) DNA microarray, average fold change increase over control", "setting": "[1]; rhPBEF", "value": 510, "unit": "fold change"},
      {"measurement": "Map3k8 DNA microarray, average fold change increase over control", "setting": "[1]; rhPBEF", "value": 3, "unit": "fold change"},
      {"measurement": "TNF-α DNA microarray, average fold change increase over control", "setting": "[1]; rhPBEF", "value": 23, "unit": "fold change"},
      {"measurement": "BCL3 DNA microarray, average fold change increase over control", "setting": "[1]; rhPBEF VILIa", "value": 11, "unit": "fold change"},
      {"measurement": "CxCL1 (KC) DNA microarray, average fold change increase over control", "setting": "[1]; rhPBEF VILIa", "value": 589, "unit": "fold change"},
      {"measurement": "CxCL2 (MIP2α) DNA microarray, average fold change increase over control", "setting": "[1]; rhPBEF VILIa", "value": 2128, "unit": "fold change"},
      {"measurement": "MMP9 DNA microarray, average fold change increase over control", "setting": "[1]; rhPBEF VILIa", "value": 13, "unit": "fold change"},
      {"measurement": "Unique Down", "setting": "[1]; [3]", "value": 118},
      {"measurement": "Significant probe sets", "setting": "[2]; [4]", "value": 836},
      {"measurement": "Unique Down", "setting": "[2]; [4]", "value": 258},
      {"measurement": "Unique Up", "setting": "[2]; [4]", "value": 432},
      {"measurement": "Unique gene (dysregulated genes)", "setting": "[2]; [4]", "value": 690},
      {"measurement": "Significant probe sets", "setting": "[2]; [5]", "value": 82},
      {"measurement": "Unique Down", "setting": "[2]; [5]", "value": 0},
      {"measurement": "Unique Up", "setting": "[2]; [5]", "value": 65},
      {"measurement": "Unique gene (differentially expressed genes)", "setting": "[2]; [5]", "value": 65},
      {"measurement": "BCL3 DNA microarray, average fold change increase over control", "setting": "[2]; rhPBEF", "value": 7, "unit": "fold change"},
      {"measurement": "BCL3 RNA (RT-PCR), average fold change increase over control", "setting": "[2]; rhPBEF", "value": 4, "unit": "fold change"},
      {"measurement": "CxCL1 (KC) Protein (BAL levels by ELISA), average fold change increase over control", "setting": "[2]; rhPBEF", "value": 43, "unit": "fold change"},
      {"measurement": "CxCL1 (KC) RNA (RT-PCR), average fold change increase over control", "setting": "[2]; rhPBEF", "value": 146, "unit": "fold change"},
      {"measurement": "CxCL2 (MIP2α) DNA microarray, average fold change increase over control", "setting": "[2]; rhPBEF", "value": 2290, "unit": "fold change"},
      {"measurement": "CxCL2 (MIP2α) Protein (BAL levels by ELISA), average fold change increase over control", "setting": "[2]; rhPBEF", "value": 115, "unit": "fold change"},
      {"measurement": "CxCL2 (MIP2α) RNA (RT-PCR), average fold change increase over control", "setting": "[2]; rhPBEF", "value": 613, "unit": "fold change"},
      {"measurement": "IL-1-β DNA microarray, average fold change increase over control", "setting": "[2]; rhPBEF", "value": 70, "unit": "fold change"},
      {"measurement": "IL-1-β Protein (BAL levels by ELISA), average fold change increase over control", "setting": "[2]; rhPBEF", "value": 3, "unit": "fold change"},
      {"measurement": "IL-6 DNA microarray, average fold change increase over control", "setting": "[2]; rhPBEF", "value": 240, "unit": "fold change"},
      {"measurement": "IL-6 Protein (BAL levels by ELISA), average fold change increase over control", "setting": "[2]; rhPBEF", "value": 9, "unit": "fold change"},
      {"measurement": "MMP9 DNA microarray, average fold change increase over control", "setting": "[2]; rhPBEF", "value": 16, "unit": "fold change"},
      {"measurement": "MMP9 RNA (RT-PCR), average fold change increase over control", "setting": "[2]; rhPBEF", "value": 16, "unit": "fold change"},
      {"measurement": "Map3k8 RNA (RT-PCR), average fold change increase over control", "setting": "[2]; rhPBEF", "value": 1, "unit": "fold change"},
      {"measurement": "TNF-α Protein (BAL levels by ELISA), average fold change increase over control", "setting": "[2]; rhPBEF", "value": 43, "unit": "fold change"},
      {"measurement": "BCL3 RNA (RT-PCR), average fold change increase over control", "setting": "[2]; rhPBEF VILIa", "value": 10, "unit": "fold change"},
      {"measurement": "CxCL1 (KC) Protein (BAL levels by ELISA), average fold change increase over control", "setting": "[2]; rhPBEF VILIa", "value": 45, "unit": "fold change"},
      {"measurement": "CxCL1 (KC) RNA (RT-PCR), average fold change increase over control", "setting": "[2]; rhPBEF VILIa", "value": 148, "unit": "fold change"},
      {"measurement": "CxCL2 (MIP2α) Protein (BAL levels by ELISA), average fold change increase over control", "setting": "[2]; rhPBEF VILIa", "value": 196, "unit": "fold change"},
      {"measurement": "CxCL2 (MIP2α) RNA (RT-PCR), average fold change increase over control", "setting": "[2]; rhPBEF VILIa", "value": 1479, "unit": "fold change"},
      {"measurement": "IL-1-β DNA microarray, average fold change increase over control", "setting": "[2]; rhPBEF VILIa", "value": 87, "unit": "fold change"},
      {"measurement": "IL-1-β Protein (BAL levels by ELISA), average fold change increase over control", "setting": "[2]; rhPBEF VILIa", "value": 3, "unit": "fold change"},
      {"measurement": "IL-6 DNA microarray, average fold change increase over control", "setting": "[2]; rhPBEF VILIa", "value": 900, "unit": "fold change"},
      {"measurement": "IL-6 Protein (BAL levels by ELISA), average fold change increase over control", "setting": "[2]; rhPBEF VILIa", "value": 27, "unit": "fold change"},
      {"measurement": "MMP9 RNA (RT-PCR), average fold change increase over control", "setting": "[2]; rhPBEF VILIa", "value": 1, "unit": "fold change"},
      {"measurement": "Map3k8 DNA microarray, average fold change increase over control", "setting": "[2]; rhPBEF VILIa", "value": 4, "unit": "fold change"},
      {"measurement": "Map3k8 RNA (RT-PCR), average fold change increase over control", "setting": "[2]; rhPBEF VILIa", "value": 2, "unit": "fold change"},
      {"measurement": "TNF-α DNA microarray, average fold change increase over control", "setting": "[2]; rhPBEF VILIa", "value": 23, "unit": "fold change"},
      {"measurement": "TNF-α Protein (BAL levels by ELISA), average fold change increase over control", "setting": "[2]; rhPBEF VILIa", "value": 45, "unit": "fold change"},
      {"measurement": "Significant probe sets", "setting": "[2]; [3]", "value": 613},
      {"measurement": "Unique Up", "setting": "[2]; [3]", "value": 375},
      {"measurement": "Unique gene (dysregulated genes)", "setting": "[2]; [3]", "value": 493}
    ]}
  ]
}
